Experimental data as given in publication PMC5487684, “Safety, Pharmacokinetics, and Antiviral Activity of a Novel HIV Antiviral, ABX464, in Treatment-Naive HIV-Infected Subjects in a Phase 2 Randomized, Controlled Study” (Antimicrobial Agents and Chemotherapy, 2017).

System: HIV-infected subjects
Test: Safety and tolerability (TEAEs, ECG, laboratory) after repeated oral administration, phase 2a study
Type: in vivo, human
Conditions: for Subjects experiencing at least one TEAE: Abdominal pain / Subjects experiencing at least one TEAE: Arthralgia / Subjects experiencing at least one TEAE: Back pain / Subjects experiencing at least one TEAE: Diarrhea / Subjects experiencing at least one TEAE: Flank pain / Subjects experiencing at least one TEAE: Gastrointestinal disorders / Subjects experiencing at least one TEAE: Headache / Subjects experiencing at least one TEAE: Injury, poisoning, and procedural complications / Subjects experiencing at least one TEAE: Musculoskeletal and connective tissue disorders / Subjects experiencing at least one TEAE: Nausea / Subjects experiencing at least one TEAE: Neck pain / Subjects experiencing at least one TEAE: Nervous system disorders / Subjects experiencing at least one TEAE: Pain in extremity / Subjects experiencing at least one TEAE: Sciatica, back pain / Subjects experiencing at least one TEAE: Skin abrasion / Subjects experiencing at least one TEAE: Total / Subjects experiencing at least one TEAE: Upper abdominal pain / Subjects experiencing at least one TEAE: Vomiting: fasted
Description: Participants were assigned to one of eight groups; each group (with one exception) included eight subjects receiving either ABX464 (n = 6) or the corresponding placebo (n = 2) according to a randomization code. […] In the present study with HIV-infected subjects, the first dose administered was 25 mg, given once or 3 times a day over a 2- to 3-week period. This initial dose was therefore considered safe for assessment of the safety and tolerability of ABX464 after repeated oral administrations in subjects infected by HIV and determination of the potential effect on the HIV viral load.
The final dosing protocol for each of the eight groups was as follows: group 1, 25 mg every 3 days for 2 to 3 weeks under fasted conditions; group 2, 25 mg once a day (q.d.) for 2 to 3 weeks under fasted conditions; group 3, 50 mg once a day for 2 to 3 weeks under fasted conditions; group 4, 50 mg 3 times a day (t.i.d.) for 4 weeks under fed conditions; group 5, 75 mg once a day for 2 weeks under fed conditions; group 6, 100 mg once a day for 2 to 3 weeks under fasted conditions; group 7, 150 mg every 3 days for 2 to 3 weeks under fed conditions; and group 8, 150 mg once a day for 2 weeks under fed conditions. Per the study protocol, the treatment period was defined as 2 weeks. […] The decision to proceed to the next highest dose was determined by the data and safety monitoring board after review of the laboratory safety data, vital signs, ECGs, and adverse event reports from the group receiving the current dose after 2 weeks of treatment.
Subjects were hospitalized from the day prior to the first dose to at least the morning of day 2. They were orally dosed with 25-mg capsules of ABX464 with 240 ml water under fed or fasted conditions. According to the group, subjects were dosed with 1, 2, 3, 4, or 6 capsules to deliver 25 mg, 50 mg, 75 mg, 100 mg, or 150 mg product, respectively, or the same number of placebo capsules.
Safety assessments and laboratory tests were carried out according to the schedules described in Table S4 for groups dosed every day, every 3 days, and 3 times a day. Follow-up visits were scheduled for 7 days after the last dose and subsequently once every week in order to assess the elimination of the main ABX464 metabolite and to assess the viral load. Follow-up visits were terminated when the virus load was within 0.5 log of the baseline value or after 3 follow-up visits, whichever came first. Prior to the statistical analyses, AEs were coded using the Medical Dictionary for Regulatory Activities (MedDRA dictionary; last available version) in order to be tabulated by system organ class (SOC) and preferred term (PT). The AEs were analyzed according to the treatment emergence phase from the first study drug administration on day 1 up to 48 h after the last study drug administration. The number and percentage of subjects with at least one TEAE were tabulated by SOC and PT for each group and dose. The number of occurrences of TEAEs was also analyzed in the same way by SOC and PT for each group and dose, by grade of severity for each group and dose, and by level of causality to the study drug for each group and dose.

[1] = Group 1 (n = 6), 25 mg every 3 days, Mild
[2] = Group 1 (n = 6), 25 mg every 3 days, Moderate
[3] = Group 2 (n = 6), 25 mg q.d., Mild
[4] = Group 2 (n = 6), 25 mg q.d., Moderate

FC(F)(F)Oc1ccc(Nc2ccc3cccc(Cl)c3n2)cc1 [ABX464]
Nausea frequency (75 mg q.d.): 66.7% | Subjects with a skin rash episode (75 mg q.d. under fed conditions, one episode of moderate intensity): two | Subjects with vomiting episodes (150 mg every 3 days): 50.0% | Nausea frequency (150 mg q.d.): 100% | Subjects reporting vomiting (16 subjects overall, no vomiting episodes in placebo): 32% | Severity of adverse events (ABX464 treatment group): mild to moderate | TEAEs leading to treatment discontinuation (ABX464 treatment group): none of the TEAEs led to treatment discontinuation | Subjects reporting at least one episode of headache (ABX464 treatment groups): 56% | Subjects experiencing at least one TEAE: Abdominal pain [1]: 0 (0.0) No. (%) | Subjects experiencing at least one TEAE: Arthralgia [1]: 0 (0.0) No. (%) | Subjects experiencing at least one TEAE: Back pain [1]: 0 (0.0) No. (%) | Subjects experiencing at least one TEAE: Diarrhea [1]: 0 (0.0) No. (%) | Subjects experiencing at least one TEAE: Flank pain [1]: 0 (0.0) No. (%) | Subjects experiencing at least one TEAE: Gastrointestinal disorders [1]: 2 (33.3) No. (%) | Subjects experiencing at least one TEAE: Headache [1]: 0 (0.0) No. (%) | Subjects experiencing at least one TEAE: Injury, poisoning, and procedural complications [1]: 0 (0.0) No. (%) | Subjects experiencing at least one TEAE: Musculoskeletal and connective tissue disorders [1]: 0 (0.0) No. (%) | Subjects experiencing at least one TEAE: Nausea [1]: 1 (16.7) No. (%) | Subjects experiencing at least one TEAE: Neck pain [1]: 0 (0.0) No. (%) | Subjects experiencing at least one TEAE: Nervous system disorders [1]: 0 (0.0) No. (%) | Subjects experiencing at least one TEAE: Pain in extremity [1]: 0 (0.0) No. (%) | Subjects experiencing at least one TEAE: Sciatica, back pain [1]: 0 (0.0) No. (%) | Subjects experiencing at least one TEAE: Skin abrasion [1]: 0 (0.0) No. (%) | Subjects experiencing at least one TEAE: Total [1]: 2 (33.3) No. (%) | Subjects experiencing at least one TEAE: Upper abdominal pain [1]: 0 (0.0) No. (%) | Subjects experiencing at least one TEAE: Vomiting [1]: 1 (16.7) No. (%) | Subjects experiencing at least one TEAE: Abdominal pain [2]: 0 (0.0) No. (%) | Subjects experiencing at least one TEAE: Arthralgia [2]: 0 (0.0) No. (%) | Subjects experiencing at least one TEAE: Back pain [2]: 0 (0.0) No. (%) | Subjects experiencing at least one TEAE: Diarrhea [2]: 0 (0.0) No. (%) | Subjects experiencing at least one TEAE: Flank pain [2]: 0 (0.0) No. (%) | Subjects experiencing at least one TEAE: Headache [2]: 0 (0.0) No. (%) | Subjects experiencing at least one TEAE: Injury, poisoning, and procedural complications [2]: 0 (0.0) No. (%) | Subjects experiencing at least one TEAE: Musculoskeletal and connective tissue disorders [2]: 1 (16.7) No. (%) | Subjects experiencing at least one TEAE: Nausea [2]: 0 (0.0) No. (%) | Subjects experiencing at least one TEAE: Neck pain [2]: 0 (0.0) No. (%) | Subjects experiencing at least one TEAE: Nervous system disorders [2]: 0 (0.0) No. (%) | Subjects experiencing at least one TEAE: Pain in extremity [2]: 0 (0.0) No. (%) | Subjects experiencing at least one TEAE: Sciatica, back pain [2]: 1 (16.7) No. (%) | Subjects experiencing at least one TEAE: Skin abrasion [2]: 0 (0.0) No. (%) | Subjects experiencing at least one TEAE: Total [2]: 2 (33.3) No. (%) | Subjects experiencing at least one TEAE: Upper abdominal pain [2]: 0 (0.0) No. (%) | Subjects experiencing at least one TEAE: Vomiting [2]: 0 (0.0) No. (%) | Subjects experiencing at least one TEAE: Abdominal pain [3]: 0 (0.0) No. (%) | Subjects experiencing at least one TEAE: Arthralgia [3]: 0 (0.0) No. (%) | Subjects experiencing at least one TEAE: Back pain [3]: 1 (16.7) No. (%) | Subjects experiencing at least one TEAE: Diarrhea [3]: 1 (16.7) No. (%) | Subjects experiencing at least one TEAE: Flank pain [3]: 0 (0.0) No. (%) | Subjects experiencing at least one TEAE: Gastrointestinal disorders [3]: 2 (33.3) No. (%) | Subjects experiencing at least one TEAE: Headache [3]: 1 (16.7) No. (%) | Subjects experiencing at least one TEAE: Injury, poisoning, and procedural complications [3]: 0 (0.0) No. (%) | Subjects experiencing at least one TEAE: Musculoskeletal and connective tissue disorders [3]: 1 (16.7) No. (%) | Subjects experiencing at least one TEAE: Nausea [3]: 0 (0.0) No. (%) | Subjects experiencing at least one TEAE: Neck pain [3]: 0 (0.0) No. (%) | Subjects experiencing at least one TEAE: Nervous system disorders [3]: 1 (16.7) No. (%) | Subjects experiencing at least one TEAE: Pain in extremity [3]: 0 (0.0) No. (%) | Subjects experiencing at least one TEAE: Sciatica, back pain [3]: 0 (0.0) No. (%) | Subjects experiencing at least one TEAE: Skin abrasion [3]: 0 (0.0) No. (%) | Subjects experiencing at least one TEAE: Total [3]: 2 (33.3) No. (%) | Subjects experiencing at least one TEAE: Upper abdominal pain [3]: 0 (0.0) No. (%) | Subjects experiencing at least one TEAE: Vomiting [3]: 2 (33.3) No. (%) | Subjects experiencing at least one TEAE: Abdominal pain [4]: 0 (0.0) No. (%) | Subjects experiencing at least one TEAE: Arthralgia [4]: 0 (0.0) No. (%) | Subjects experiencing at least one TEAE: Back pain [4]: 0 (0.0) No. (%) | Subjects experiencing at least one TEAE: Diarrhea [4]: 0 (0.0) No. (%) | Subjects experiencing at least one TEAE: Flank pain [4]: 0 (0.0) No. (%) | Subjects experiencing at least one TEAE: Headache [4]: 0 (0.0) No. (%) | Subjects experiencing at least one TEAE: Injury, poisoning, and procedural complications [4]: 0 (0.0) No. (%) | Subjects experiencing at least one TEAE: Musculoskeletal and connective tissue disorders [4]: 0 (0.0) No. (%) | Subjects experiencing at least one TEAE: Nausea [4]: 0 (0.0) No. (%) | Subjects experiencing at least one TEAE: Neck pain [4]: 0 (0.0) No. (%) | Subjects experiencing at least one TEAE: Nervous system disorders [4]: 0 (0.0) No. (%) | Subjects experiencing at least one TEAE: Pain in extremity [4]: 0 (0.0) No. (%) | Subjects experiencing at least one TEAE: Sciatica, back pain [4]: 0 (0.0) No. (%) | Subjects experiencing at least one TEAE: Skin abrasion [4]: 0 (0.0) No. (%)
